Experimental data: paper PMC3280428 (Journal of Molecular Biology, 2011)
“And” between values parts separate entries of the source, which are not always exact repeats. Identical values can stand only once.

How the values were obtained:
Cytotoxicity [1] = type: cell-based; settings: human
[2] = target: T1, KIAA1718 Jumonji domain (residues 92–488) (Homo sapiens, UniProt Q6ZMT4); test: Mass-spectrometry-based demethylation inhibition assay, KIAA1718 Jumonji domain; type: biochemical
T1 sequence (Q6ZMT4 92-488): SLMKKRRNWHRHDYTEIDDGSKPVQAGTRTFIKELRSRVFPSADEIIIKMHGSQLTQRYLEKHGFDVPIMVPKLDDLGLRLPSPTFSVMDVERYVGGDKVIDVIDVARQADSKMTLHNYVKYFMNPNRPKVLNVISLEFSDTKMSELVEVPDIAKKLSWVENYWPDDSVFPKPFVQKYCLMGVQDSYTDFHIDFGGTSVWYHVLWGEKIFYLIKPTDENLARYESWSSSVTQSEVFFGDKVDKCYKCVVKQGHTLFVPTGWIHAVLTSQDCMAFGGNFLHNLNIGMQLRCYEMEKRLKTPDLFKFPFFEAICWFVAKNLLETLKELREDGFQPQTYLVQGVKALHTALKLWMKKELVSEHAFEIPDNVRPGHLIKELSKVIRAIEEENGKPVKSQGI

Cytotoxicity [3] = type: cell-based; settings: 129S2/SvPasCrl, mouse

With `COc1cc2nc(N3CCCN(C)CC3)nc(NC3CCN(Cc4ccccc4)CC3)c2cc1OC` [BIX-01294] the CC50 at 24 h (Cytotoxicity [1]) was 3.2 µM, the IC50 [2] was 16.5 µM and ~16.5 µM and the Ki [2] was 15.3 µM. It also gave a CC50 at 24 h (Cytotoxicity [3]) of 7.4 µM.
